# Data reported in US11229624B2, “FABP4 as a therapeutic target in skin diseases” (TICURE LTD., priority 2016, dated 2022).
# Tested on: IMQ-induced psoriasis in mice
# Assay: Imiquimod-induced psoriasis model in mice, PASI scoring of back skin inflammation
# Format: in vivo, Balb/c mice
# Text: As already explained, psoriasis is a chronic inflammatory skin disorder. It occurs when the immune system mistakes the skin cells as a pathogen, and sends out faulty signals that speed up the proliferation of skin cells. Imiquimod (IMQ) is a potent immune activator that induces and exacerbates psoriasis when applied topically. Daily application of IMQ on mouse back skin induces inflamed scaly skin lesions resembling plaque type psoriasis. IMQ-induced psoriasis in mice has been long used as a model for human psoriasis.
# The efficacy of oral administration of a FABP4-inhibitor to treat psoriasis in the IMQ-induced model in mice was tested.
# The test was carried out using Balb/c mice (Envigo RMS (Israel) Ltd), average (±SD) body weight at study initiation was 18.2±0.81 g. Animals were fed ad libitum a commercial rodent diet (Teklad Certified Global 18% Protein Diet, Harlan cat #2018SC). Animals had free access to sterilized and acidified drinking water (pH between 2.5 and 3.5).
# The tests included six groups of 3-10 mice per group, as follows: • one naïve (no IMQ) group; • one Vehicle control group, the vehicle formulation being 10% 1-methyl-2-pyrrolidone and 5% Cremophor EL in water for injection (WFI); • one treated group that received Cortisone acetate as a positive control—one tablet (25 mg each, Rekah Pharm) was triturated with a mortar. The powder was dissolved in 2.5 ml WFI yielding 10 mg/ml. The compound was administrated per-os at 12.5 mg/kg BW (body weight) mouse of the compound once daily for six days starting the first day of IMQ application (Day 1); and • three treated groups that received BMS (i.e. Test Item) at three doses—5, 15 and 30 mg/kg. BMS powder (Cayman Chemical) was dissolved in ethanol to create a 30 mg/ml solution. This stock solution was diluted in the Vehicle to create three different concentrations 0.5, 1.5 and 3 mg/ml. A new aqueous solution was prepared in each day. BMS was administrated per-os once daily for six days starting the first day of IMQ application (Day 1).
# IMQ-induction: A daily topical dose of 62.5 mg of commercially available IMQ cream (5%) (Aldara; 3M Pharmaceuticals) was applied to animals from all the groups except for the naïve group on the shaved back for six consecutive days, translated to a daily dose of 3.125 mg of the active compound.
# Experiment conditions: All animals except for the naïve group received IMQ cream (Aldara™ 5% cream, #3 Pharmaceuticals) applied on the back skin daily for six consecutive days starting on Day 1 (˜60 mg/mouse). The Test Item, Vehicle and Cortisone acetate were administered per-os daily for 6 days. During the study morbidity and mortality, body weight (BW), clinical signs, and Psoriasis Area and Severity Index (PASI) scoring were performed and representative pictures were taken. The animals were sacrificed on Day 9.
# Scoring was performed by a trained observer in a “blinded” way, i.e., being unaware of the treatment. To score the severity of inflammation of the back skin, the clinical PASI scoring was employed. Erythema, scaling, and thickening were scored independently on a scale from 0 to 4: 0, none; 1, slight; 2, moderate; 3, marked; 4, very marked. The cumulative score (erythema plus scaling plus thickening), PASI scoring, served as a measure of the severity of inflammation (scale 0-12).
# [1] = 15 mg/kg per-os once daily for six days
# [2] = BMS treated groups (5, 15 and 30 mg/kg per-os), Day 7
smiles,measurement,setting,value
"CCc1c(-c2ccccc2)c(-c2ccccc2)nn1-c1ccccc1-c1cccc(OCC(=O)O)c1 [BMS, 2-[[2′-(5-ethyl-3,4-diphenyl-1H-pyrazol-1-yl)[1,1′-biphenyl]-3-yl]oxy]-acetic acid]","erythema severity score, comparison of doses",[1],best results
same,"scaling severity score, comparison of doses",[1],best results
same,"skin thickness severity score, comparison of doses",[1],best results
same,severity of skin inflammation (PASI scoring),"BMS treated groups (5, 15 and 30 mg/kg per-os once daily for six days), Day 7",significant amelioration
same,erythema severity score,[2],significant amelioration
same,scaling severity score,[2],significant amelioration
same,skin thickness severity score,[2],significant amelioration
same,"impact on the inflammation severity, comparison of doses",middle dose 15 mg/kg per-os once daily for six days,highest impact
